For the assay, the system named is CAL51 cell proliferation. The assay is described as follows: Cell Titer Glo Proliferation Assay (CAL51). The format is cell-based, human. Particulars: Homo sapiens, read-out: Act. Level. The method, boiled down:
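Viability is measured by CellTiter-Glo luminescence after 72 h of compound exposure. CAL51 cells were seeded in growth medium with 10% FBS and 2 mM glutamine, cultured overnight, then dosed with compound dilutions, vehicle held at 0.2% DMSO.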
For orientation: Cellular ATP, detected with luciferase, serves as a proxy for viable cell number.

[1] abbreviates: CAL-51, CAL51 cell proliferation, 72 h, Cell Titer Glo luminescence.

Structures are written as SMILES. Where two headings read alike, the source gives them in different places.

Regarding `COc1cc(C(=O)N[C@H](C)CO)ccc1Nc1nc(OC2CCCC2)c2c(-c3ccc4nc(C)oc4c3)c[nH]c2n1` [Example 214, (R)-4-(4-(cyclopentyloxy)-5-(2-methylbenzo[d]oxazol-6-yl)-7H-pyrrolo[2,3-d]pyrimidin-2-ylamino)-N-(1-hydroxypropan-2-yl)-3-methoxybenzamide], the IC50 under setting [1] is below 100 nM.

Consider `CNC(=O)c1ccc(-c2c[nH]c3nc(Nc4ccc(C(=O)NCCO)cc4OC)nc(OC4CCCC4)c23)cc1` [Example 258, 4-(4-(cyclopentyloxy)-5-(4-(methylcarbamoyl)phenyl)-7H-pyrrolo[2,3-d]pyrimidin-2-ylamino)-N-(2-hydroxyethyl)-3-methoxybenzamide], for which, under setting [1], the IC50 is below 100 nM. On the same count and under the same terms, for `CNC(=O)c1ccc(Nc2nc(OC3CCOCC3)c3c(-c4ccc(S(C)(=O)=O)cc4)c[nH]c3n2)c(C)c1` [Example 158, N,3-dimethyl-4-(5-(4-(methylsulfonyl)phenyl)-4-(tetrahydro-2H-pyran-4-yloxy)-7H-pyrrolo[2,3-d]pyrimidin-2-ylamino)benzamide] the value was 400 to 1000 nM; for `CNC(=O)c1ccc(Nc2nc(OC3CCCC3)c3c(-c4ccc5nc(C)oc5c4)c[nH]c3n2)c(C)c1` [Example 94, 4-(4-(cyclopentyloxy)-5-(2-methylbenzo[d]oxazol-6-yl)-7H-pyrrolo[2,3-d]pyrimidin-2-ylamino)-N,3-dimethylbenzamide], 400 to 1000 nM. In the case of `CNC(=O)c1ccc(Nc2nc(OC3CCCC3)c3c(-c4ccc(O)cc4)c[nH]c3n2)c(F)c1` [Example 15, 4-(4-(cyclopentyloxy)-5-(4-hydroxyphenyl)-7H-pyrrolo[2,3-d]pyrimidin-2-ylamino)-3-fluoro-N-methylbenzamide], the IC50 under setting [1] is below 100 nM. In the case of `CNC(=O)c1ccc(Nc2nc(OC3CCCC3)c3c(-c4ccc(O)cc4)c[nH]c3n2)cc1` [Example 1, 4-(4-(cyclopentyloxy)-5-(4-hydroxyphenyl)-7H-pyrrolo[2,3-d]pyrimidin-2-ylamino)-N-methylbenzamide], under “CAL-51, 72 h”, the IC50 was below 100 nM. Take `COc1cc(C(=O)NCC(C)(F)F)ccc1Nc1nc(OC2CCCC2)c2c(-c3ccc4nc(C)oc4c3)c[nH]c2n1` [Example 309, 4-(4-(cyclopentyloxy)-5-(2-methylbenzo[d]oxazol-6-yl)-7H-pyrrolo[2,3-d]pyrimidin-2-ylamino)-N-(2,2-difluoropropyl)-3-methoxybenzamide]: the IC50 under setting [1] lay in the range of 100 to 400 nM.

With `COc1cc(C(=O)NC[C@H]2CCCO2)ccc1Nc1nc(OC2CCCC2)c2c(-c3ccc4nc(C)oc4c3)c[nH]c2n1` [Example 242, (R)-4-(4-(cyclopentyloxy)-5-(2-methylbenzo[d]oxazol-6-yl)-7H-pyrrolo[2,3-d]pyrimidin-2-ylamino)-3-methoxy-N-((tetrahydrofuran-2-yl)methyl)benzamide], the IC50 under setting [1] lay in the range of 100 to 400 nM. For `Cc1cc(C(=O)N(C)C)ccc1Nc1nc(OC2CCOCC2)c2c(-c3ccc4nc(N)[nH]c4c3)c[nH]c2n1` [Example 116, 4-(5-(2-amino-1H-benzo[d]imidazol-6-yl)-4-(tetrahydro-2H-pyran-4-yloxy)-7H-pyrrolo[2,3-d]pyrimidin-2-ylamino)-N,N,3-trimethylbenzamide], the IC50 under setting [1] is below 100 nM.

Consider `COc1cc(C(=O)NC2CCCOC2)ccc1Nc1nc(OC2CCCC2)c2c(-c3ccc4nc(C)oc4c3)c[nH]c2n1` (stereo not shown) [Example 273, 4-(4-(cyclopentyloxy)-5-(2-methylbenzo[d]oxazol-6-yl)-7H-pyrrolo[2,3-d]pyrimidin-2-yl-amino)-3-methoxy-N-(tetrahydro-2H-pyran-3-yl)benzamide], for which, under setting [1], the IC50 was below 100 nM. With `CNC(=O)c1ccc(Nc2nc(OC3CCCC3)c3c(-c4ccc(OC)c(F)c4)c[nH]c3n2)c(OC)c1` [Example 54, 4-(4-(cyclopentyloxy)-5-(3-fluoro-4-methoxyphenyl)-7H-pyrrolo[2,3-d]pyrimidin-2-ylamino)-3-methoxy-N-methylbenzamide], the IC50 under setting [1] was in the range of 100 to 400 nM. For `COc1cc(C(=O)NC2CN(C(C)=O)C2)ccc1Nc1nc(OC2CCCC2)c2c(-c3ccc4nc(C)oc4c3)c[nH]c2n1` [Example 308, N-(1-acetylazetidin-3-yl)-4-(4-(cyclopentyloxy)-5-(2-methylbenzo[d]oxazol-6-yl)-7H-pyrrolo[2,3-d]pyrimidin-2-ylamino)-3-methoxybenzamide], the IC50 under setting [1] fell in the range of 100 to 400 nM. For the compound `COCCOc1nc(Nc2ccc(C(=O)N(C)C)cc2OC)nc2[nH]cc(-c3cnn(C)c3)c12` [Example 221, 3-methoxy-4-(4-(2-methoxyethoxy)-5-(1-methyl-1H-pyrazol-4-yl)-7H-pyrrolo[2,3-d]pyrimidin-2-ylamino)-N,N-dimethylbenzamide], the IC50 under setting [1] was below 100 nM. As to `COc1cc(C(=O)NCCCO)ccc1Nc1nc(OC2CCCC2)c2c(-c3ccc4nc(C)oc4c3)c[nH]c2n1` [Example 232, 4-(4-(cyclopentyloxy)-5-(2-methylbenzo[d]oxazol-6-yl)-7H-pyrrolo[2,3-d]pyrimidin-2-ylamino)-N-(3-hydroxypropyl)-3-methoxybenzamide], the IC50 under setting [1] was below 100 nM. On the same count and under the same terms, for `Cc1nc2ccc(-c3c[nH]c4nc(Nc5ccc(C(=O)N6CCNCC6)cc5C)nc(NC5CCOCC5)c34)cc2o1` [Example 74, (3-methyl-4-(5-(2-methylbenzo[d]oxazol-6-yl)-4-(tetrahydro-2H-pyran-4-ylamino)-7H-pyrrolo [2,3-d]pyrimidin-2-ylamino)phenyl) (piperazin-1-yl)methanone] the value was 100 to 400 nM; for `CC[C@H](C)Oc1nc(Nc2ccc(C(=O)NC)cc2OC)nc2[nH]cc(-c3ccc4nc(C)oc4c3)c12` [Example 204, (S)-4-(4-sec-butoxy-5-(2-methylbenzo[d]oxazol-6-yl)-7H-pyrrolo[2,3-d]pyrimidin-2-ylamino)-3-methoxy-N-methylbenzamide], 100 to 400 nM; for `Cc1nc2ccc(-c3c[nH]c4nc(Nc5ccc(C(=O)N(C)C)cc5C)nc(O[C@@H]5CCOC5)c34)cc2o1` [Example 99, (R)-N,N,3-trimethyl-4-(5-(2-methylbenzo[d]oxazol-6-yl)-4-(tetrahydrofuran-3-yloxy)-7H-pyrrolo[2,3-d]pyrimidin-2-ylamino)benzamide], below 100 nM. For `CNC(=O)c1ccc(Nc2nc(OC3CCOCC3)c3c(-c4ccnc(N)c4)c[nH]c3n2)c(OC)c1` [Example 142, 4-(5-(2-aminopyridin-4-yl)-4-(tetra-hydro-2H-pyran-4-yloxy)-7H-pyrrolo[2,3-d]pyrimidin-2-ylamino)-3-methoxy-N-methylbenzamide], the IC50 under setting [1] was below 100 nM. `Cc1cc(C(=O)N(C)C)ccc1Nc1nc(O[C@H]2CCOC2)c2c(-c3ccncc3)c[nH]c2n1` [Example 176, (S)-N,N,3-trimethyl-4-(5-(pyridin-4-yl)-4-(tetrahydrofuran-3-yloxy)-7H-pyrrolo[2,3-d]pyrimidin-2-ylamino)benzamide]: the IC50 under setting [1] fell in the range of 100 to 400 nM. Consider `CNC(=O)c1ccc(Nc2nc(OC)c3c(-c4cnn(C)c4)c[nH]c3n2)c(OC)c1` [Example 177, 3-methoxy-4-(4-methoxy-5-(1-methyl-1H-pyrazol-4-yl)-7H-pyrrolo [2,3-d]pyrimidin-2-ylamino)-N-methylbenzamide], for which, under setting [1], the IC50 was in the range of 100 to 400 nM.

In the case of `CNC(=O)c1ccc(Nc2nc(O[C@H]3CCOC3)c3c(-c4ccnc(C)c4)c[nH]c3n2)c(OC)c1` [Example 178, (S)-3-methoxy-N-methyl-4-(5-(2-methylpyridin-4-yl)-4-(tetrahydrofuran-3-yloxy)-7H-pyrrolo [2,3-d]pyrimidin-2-ylamino) benzamide], the IC50 under setting [1] was below 100 nM.

As to `COc1cc(C(=O)N2CCC2)ccc1Nc1nc(OC2CCCC2)c2c(-c3ccc4nc(C)oc4c3)c[nH]c2n1` [Example 241, azetidin-1-yl(4-(4-(cyclopentyloxy)-5-(2-methylbenzo[d]oxazol-6-yl)-7H-pyrrolo[2,3-d]pyrimidin-2-ylamino)-3-methoxyphenyl) methanone], under setting [1], the IC50 is below 100 nM.

As for `CNC(=O)c1ccc(Nc2nc(OC3CCCC3)c3c(-c4ccc(CO)cc4)c[nH]c3n2)c(OC)c1` [Example 23, 4-(4-(cyclopentyloxy)-5-(4-(hydroxymethyl)phenyl)-7H-pyrrolo[2,3-d]pyrimidin-2-ylamino)-3-methoxy-N-methylbenzamide], the IC50 under setting [1] lay in the range of 100 to 400 nM.

Turning to `CC[C@@H](C)Oc1nc(Nc2ccc(C(=O)NC)cc2OC)nc2[nH]cc(-c3ccc4nc(C)oc4c3)c12` [Example 203, (R)-4-(4-sec-butoxy-5-(2-methylbenzo[d]oxazol-6-yl)-7H-pyrrolo[2,3-d]pyrimidin-2-ylamino)-3-methoxy-N-methylbenzamide], the IC50 under setting [1] was 100 to 400 nM. The same measure, in the same setting: with `COc1cc(C(=O)N(C)C)ccc1Nc1nc(OC2CCCC2)c2c(-c3ccc(O)cc3)c[nH]c2n1` [Example 31, 4-(4-(cyclopentyloxy)-5-(4-hydroxyphenyl)-7H-pyrrolo[2,3-d]pyrimidin-2-ylamino)-3-methoxy-N,N-dimethylbenzamide] the figure was below 100 nM; with `COCCNC(=O)c1ccc(Nc2nc(OC3CCOCC3)c3c(-c4ccc5nc(C)oc5c4)c[nH]c3n2)c(OC)c1` [Example 120, 3-methoxy-N-(2-methoxyethyl)-4-(5-(2-methylbenzo[d]oxazol-6-yl)-4-(tetrahydro-2H-pyran-4-yloxy)-7H-pyrrolo[2,3-d]pyrimidin-2-ylamino)benzamide], below 100 nM. Still for that read-out and setting: for `COc1nc(Nc2ccc(C(=O)N3CCOCC3)cc2Cl)nc2[nH]cc(-c3ccc(-c4nnc[nH]4)cc3)c12` [Example 68, (4-(5-(4-(4H-1,2,4-triazol-3-yl)phenyl)-4-methoxy-7H-pyrrolo [2,3-d]pyrimidin-2-ylamino)-3-chlorophenyl)(morpholino) methanone] the value was 100 to 400 nM; for `COc1nc(Nc2ccc3[nH]ncc3c2)nc2[nH]cc(-c3ccc4nc(C)oc4c3)c12` [Example 87, N-(1H-indazol-5-yl)-4-methoxy-5-(2-methylbenzo[d]oxazol-6-yl)-7H-pyrrolo[2,3-d]pyrimidin-2-amine], 100 to 400 nM.

The values above are taken from patent publication US9346812B2, “Substituted pyrrolopyrimidine compounds, compositions thereof, and methods of treatment therewith” (Signal Pharmaceutical LLC, priority 2013, dated 2016).
